In brackets after ≈: the same amount, converted by molar mass.
Legend:
Assay in all cases: MIC/MBC antibiotic sensitivity (CLSI)
Type in all cases: cell-based
[1] = test system: Burkholderia multivorans (CBC 021); settings: Burkholderia multivorans (CBC 021); for MIC: read-out: MIC
Description: (§1) The new compounds of the invention were synthesized following the general method of preparation (Tetrahedron, 2001, 57, 1671-1675), from the reaction between an intermediary compound of the acyl thiourea and HgCl2 in presence of trimethylamine. The products were adequately characterized regarding its chemistry. The antibacterial activity of the new compounds was assayed against two Gram-positive reference strains: Staphylococcus aureus (ATCC6538) and Bacillus cereus (ATCC10876), a fermenting Gram-negative strain: Escherichia coli (ATCC25922), and 26 non-fermenting Gram-negative isolates, including 3 reference strains: Pseudomonas aeruginosa (PAO1), Bordetella bronchiseptica (9.73H+), and Inquilinus limosus (DSM16000), and 23 isolates recovered from patients suffering from cystic fibrosis, including one Achromobacter xylosoxidans isolate, and 22 isolates belonging to the Burkholderia cepacia complex. The later were selected because they presented resistance to a high number of antimicrobial compounds, among a panel of 125 clinical isolates previously analyzed for its resistance against 17 antimicrobial compounds (1,2). The antibiotic sensitivity studies were performed by applying two quantitative methods which allow to determine the minimum inhibitory concentration (MIC) and the minimum bactericidal concentration (MBC).
(§2) The compounds obtained in Examples 1 and 2 were assayed against 23 isolates recovered from the sputum of patients suffering from cystic fibrosis being treated at the Sor Maria Ludovica Children Hospital (La Plata, Buenos Aires, Argentina). Nineteen of these isolates were selected for being highly resistant to most of the antimicrobial agents of clinical use from a panel of 125 isolates previously characterized in Martina et al. (1). Reference strains were also included: Gram (+) bacteria: B. cereus and S. aureus, fermenting Gram (−) bacteria: E. coli, and non-fermenting Gram (−) bacteria: Inquilinus limosus (DSM16000), B. bronchiseptica, and Pseudomonas aeruginosa (PAO1). The antibiotic sensitivity studies were performed applying two quantitative methods which allow to determine the minimum inhibitory concentration (MIC) and the minimum bactericidal concentration (MBC) according to the criteria established by the Clinical and Laboratory Standards Institute (CLSI) (4). For comparative purposes, three antibiotics commonly used in the treatment of pulmonary infections in cystic fibrosis patients were included in the study: tobramycin, ceftazidime and meropenem.

[2] = test system: Bordetella bronchiseptica (9.73H+); settings: B. bronchiseptica (9.73H+); for MBC: read-out: MBC; for MIC: read-out: MIC
Description: as §1, §2

[3] = test system: Escherichia coli (ATCC25922); settings: for MBC / MIC: Escherichia coli, E. coli (ATCC25922); for MBC: read-out: MBC; for MIC: read-out: MIC; for Selectivity Index (SI): ratio IC50 (THP-I) / MIC for E. coli
Description: as §1, §2

[4] = test system: Burkholderia cepacia (CBC 010); settings: Burkholderia cepacia (CBC 010); for MIC: read-out: MIC
Description: as §1, §2

[5] = test system: Burkholderia cepacia (CBC 011); settings: Burkholderia cepacia (CBC 011); for MIC: read-out: MIC
Description: as §1, §2

[6] = test system: Burkholderia multivorans (CBC 020); settings: Burkholderia multivorans (CBC 020); for MIC: read-out: MIC
Description: as §1, §2

[7] = test system: Burkholderia multivorans (CBC 016); settings: Burkholderia multivorans (CBC 016); for MBC: read-out: MBC; for MIC: read-out: MIC
Description: as §1, §2

[8] = test system: Burkholderia cenocepacia (CBC 029); settings: Burkholderia cenocepacia (CBC 029); for MBC: read-out: MBC; for MIC: read-out: MIC
Description: as §1, §2

[9] = test system: Staphylococcus aureus (ATCC6538); settings: for MBC / MIC: Staphylococcus aureus, S. aureus (ATCC6538); for MBC: read-out: MBC; for MIC: read-out: MIC; for Selectivity Index (SI): ratio IC50 (THP-I) / MIC against S. aureus
Description: as §1, §2

[10] = test system: Burkholderia seminalis (CBC 040); settings: Burkholderia seminalis (CBC 040); for MIC: read-out: MIC
Description: as §1, §2

[11] = test system: Burkholderia seminalis (CBC 042); settings: Burkholderia seminalis (CBC 042); for MIC: read-out: MIC
Description: as §1, §2

[12] = test system: Burkholderia multivorans (CBC 018); settings: Burkholderia multivorans (CBC 018); for MBC: read-out: MBC; for MIC: read-out: MIC
Description: as §1, §2

[13] = test system: Burkholderia cenocepacia (CBC 035); settings: Burkholderia cenocepacia (CBC 035); for MBC: read-out: MBC; for MIC: read-out: MIC
Description: as §1, §2

[14] = test system: Burkholderia cenocepacia (CBC 032); settings: Burkholderia cenocepacia (CBC 032); for MBC: read-out: MBC; for MIC: read-out: MIC
Description: as §1, §2

[15] = test system: Burkholderia multivorans (CBC 019); settings: Burkholderia multivorans (CBC 019); for MIC: read-out: MIC
Description: as §1, §2

[16] = test system: Burkholderia multivorans (CBC 015); settings: Burkholderia multivorans (CBC 015); for MBC: read-out: MBC; for MIC: read-out: MIC
Description: as §1, §2

B. contaminans (HNBC001) = settings: for MIC: read-out: MIC
Description: as §1, §2

[17] = test system: Burkholderia cenocepacia (CBC 031); settings: Burkholderia cenocepacia (CBC 031); for MBC: read-out: MBC; for MIC: read-out: MIC
Description: as §1, §2

[18] = test system: Burkholderia cenocepacia (CBC 036); settings: Burkholderia cenocepacia (CBC 036); for MBC: read-out: MBC; for MIC: read-out: MIC
Description: as §1, §2

[19] = test system: Burkholderia cenocepacia (HE001); settings: Burkholderia cenocepacia (HE001); for MIC: read-out: MIC
Description: as §1, §2

[20] = test system: Burkholderia cenocepacia (CBC 033); settings: Burkholderia cenocepacia (CBC 033); for MBC: read-out: MBC; for MIC: read-out: MIC
Description: as §1, §2

[21] = test system: Bacillus cereus (ATCC10876); settings: for MBC: read-out: MBC; for MIC: read-out: MIC
Description: as §1, §2

[22] = test system: Pseudomonas aeruginosa (PAO1); settings: Pseudomonas aeruginosa, P. aeruginosa (PAO1); for MBC: read-out: MBC; for MIC: read-out: MIC
Description: as §1, §2

[23] = test system: Burkholderia cenocepacia (CBC 024); settings: Burkholderia cenocepacia (CBC 024); for MBC: read-out: MBC; for MIC: read-out: MIC
Description: as §1, §2

`O=C(NC(=Nc1c(F)cc(F)cc1Br)Nc1c(F)cc(F)cc1Br)C12CC3CC(CC(C3)C1)C2` [H-BDF, N—(N,N′-bis(2-bromo-4,6-difluorophenyl)carbamimidoyl)adamantane-1-carboxamide] gave an MBC [1] of 3.9 µg/mL (≈ 6.46 µM), an MIC [1] of 1.95 µg/mL (≈ 3.23 µM) and an MBC [2] of 1.95 µg/mL (≈ 3.23 µM). The MIC [2] was 0.48 µg/mL (≈ 0.796 µM), the MBC [3] was 1.95 µg/mL (≈ 3.23 µM) and the MIC [3] was 0.97 µg/mL (≈ 1.61 µM). The “Selectivity Index (SI)” value [3] was 16, the MBC [4] was 7.81 µg/mL (≈ 12.9 µM) and the MIC [4] was 3.9 µg/mL (≈ 6.46 µM). For the same compound, the MBC [5] was 30.2 µg/mL (≈ 50 µM), the MIC [5] was 1.95 µg/mL (≈ 3.23 µM) and the MBC [6] was 15.6 µg/mL (≈ 25.9 µM). The MIC [6] was 3.9 µg/mL (≈ 6.46 µM), the MBC [7] was 7.81 µg/mL (≈ 12.9 µM) and the MIC [7] was 1.95 µg/mL (≈ 3.23 µM). For the same compound, the MBC [8] was 15.6 µg/mL (≈ 25.9 µM), the MIC [8] was 3.9 µg/mL (≈ 6.46 µM) and the MBC [9] was 0.97 µg/mL (≈ 1.61 µM). For the same compound, the MIC [9] was 0.24 µg/mL (≈ 0.398 µM), the “Selectivity Index (SI)” value [9] was 62 and the MBC [10] was 7.81 µg/mL (≈ 12.9 µM). It also gave an MIC [10] of 3.9 µg/mL (≈ 6.46 µM), an MBC [11] of 7.81 µg/mL (≈ 12.9 µM) and an MIC [11] of 0.96 µg/mL (≈ 1.59 µM). The MBC [12] was 7.81 µg/mL (≈ 12.9 µM), the MIC [12] was 1.95 µg/mL (≈ 3.23 µM) and the MBC [13] was 3.9 µg/mL (≈ 6.46 µM). It also gave an MIC [13] of 1.95 µg/mL (≈ 3.23 µM), an MBC [14] of 3.9 µg/mL (≈ 6.46 µM) and an MIC [14] of 1.95 µg/mL (≈ 3.23 µM). For the same compound, the MBC [15] was 7.81 µg/mL (≈ 12.9 µM), the MIC [15] was 1.95 µg/mL (≈ 3.23 µM) and the MBC [16] was 3.9 µg/mL (≈ 6.46 µM). The MIC [16] was 1.95 µg/mL (≈ 3.23 µM), the MBC (B. contaminans (HNBC001)) was 0.97 µg/mL (≈ 1.61 µM) and the MIC (B. contaminans (HNBC001)) was < 0.48 µg/mL. For the same compound, the MBC [17] was 7.81 µg/mL (≈ 12.9 µM), the MIC [17] was 1.95 µg/mL (≈ 3.23 µM) and the MBC [18] was 7.81 µg/mL (≈ 12.9 µM). The MIC [18] was 1.95 µg/mL (≈ 3.23 µM), the MBC [19] was 61.2 µg/mL (≈ 102 µM) and the MIC [19] was 3.9 µg/mL (≈ 6.46 µM). The MBC [20] was 15.6 µg/mL (≈ 25.9 µM), the MIC [20] was 3.9 µg/mL (≈ 6.46 µM) and the MBC [21] was 1.95 µg/mL (≈ 3.23 µM). The MIC [21] was 1.95 µg/mL (≈ 3.23 µM), the MBC [22] was 3.9 µg/mL (≈ 6.46 µM) and the MIC [22] was 0.48 µg/mL (≈ 0.796 µM). For the same compound, the MBC [23] was 7.81 µg/mL (≈ 12.9 µM) and the MIC [23] was 1.95 µg/mL (≈ 3.23 µM).
`O=C(NC(=Nc1c(Br)cc(F)cc1Br)Nc1c(F)cc(F)cc1Br)C12CC3CC(CC(C3)C1)C2` [H-DBF, N—(N-(2-bromo-4,6-difluorophenyl)-N′-(2,6-dibromo-4-fluorophenyl)carbamimidoyl) adamantane-1-carboxamide] was tested, and the MBC [1] was > 132 µg/mL, the MIC [1] was 66.4 µg/mL (≈ 100 µM) and the MBC [2] was 66.5 µg/mL (≈ 100 µM). It also gave an MIC [2] of 16.6 µg/mL (≈ 25 µM), an MBC [3] of 66.4 µg/mL (≈ 100 µM) and an MIC [3] of 66.4 µg/mL (≈ 100 µM). The “Selectivity Index (SI)” value [3] was 2, the MBC [4] was > 132 µg/mL and the MIC [4] was 133 µg/mL (≈ 200 µM). The MBC [5] was > 132 µg/mL, the MIC [5] was 66.4 µg/mL (≈ 100 µM) and the MBC [6] was 133 µg/mL (≈ 200 µM). For the same compound, the MIC [6] was 66.4 µg/mL (≈ 100 µM), the MBC [7] was > 132 µg/mL and the MIC [7] was 66.4 µg/mL (≈ 100 µM). For the same compound, the MBC [8] was > 133 µg/mL, the MIC [8] was > 133 µg/mL and the MBC [9] was 66.4 µg/mL (≈ 100 µM). For the same compound, the MIC [9] was 7.81 µg/mL (≈ 11.8 µM), the “Selectivity Index (SI)” value [9] was 17 and the MBC [10] was > 61.2 µg/mL. It also gave an MIC [10] of 61.2 µg/mL (≈ 92.2 µM), an MBC [11] of 66.4 µg/mL (≈ 100 µM) and an MIC [11] of 33.2 µg/mL (≈ 50 µM). The MBC [12] was > 132 µg/mL, the MIC [12] was 66.4 µg/mL (≈ 100 µM) and the MBC [13] was 132 µg/mL (≈ 199 µM). For the same compound, the MIC [13] was 66.4 µg/mL (≈ 100 µM), the MBC [14] was 62.5 µg/mL (≈ 94.1 µM) and the MIC [14] was 31.2 µg/mL (≈ 47.1 µM). For the same compound, the MBC [15] was 132 µg/mL (≈ 199 µM), the MIC [15] was 66.4 µg/mL (≈ 100 µM) and the MBC [16] was 132 µg/mL (≈ 199 µM). The MIC [16] was 66.4 µg/mL (≈ 100 µM), the MBC (B. contaminans (HNBC001)) was 31.2 µg/mL (≈ 47.1 µM) and the MIC (B. contaminans (HNBC001)) was 15.6 µg/mL (≈ 23.5 µM). It also gave an MBC [17] of 62.5 µg/mL (≈ 94.1 µM), an MIC [17] of 31.2 µg/mL (≈ 47.1 µM) and an MBC [18] of 132 µg/mL (≈ 199 µM). For the same compound, the MIC [18] was 66.4 µg/mL (≈ 100 µM), the MBC [19] was > 61.2 µg/mL and the MIC [19] was 61.2 µg/mL (≈ 92.2 µM). The MBC [20] was > 133 µg/mL, the MIC [20] was 133 µg/mL (≈ 200 µM) and the MBC [21] was 66.4 µg/mL (≈ 100 µM). The MIC [21] was 66.4 µg/mL (≈ 100 µM), the MBC [22] was > 133 µg/mL and the MIC [22] was 33.2 µg/mL (≈ 50 µM). For the same compound, the MBC [23] was 132 µg/mL (≈ 199 µM) and the MIC [23] was 66.4 µg/mL (≈ 100 µM).

— patent publication US10857110B2, “Antibacterial compounds” (CONSEJO NACIONAL DE INVESTIGACIONES CIENTÍFICAS Y TÉCNICAS …, priority 2016, dated 2020)
